In publication PMC11019538, “Biophysics-Guided Lead Discovery of HBV Capsid Assembly Modifiers” (ACS Infectious Diseases, 2024):
Where two headings read alike, the source gives them in different places.

Key:
[1] = tested on: HBV DNA replication in HepAD38 cells; experiment: HBV DNA replication inhibition assay in HepAD38 cells (7 days, PCR of supernatant DNA); assay type: cell-based, hepatitis B virus; conditions: Hepatitis B virus
Description: HepAD38 cells were seeded at 50,000 cells/well in collagen-coated 96-well plates. […] The experiment lasted 7 days. On day 7, total DNA was purified from the supernatant using a commercially available kit (DNeasy 96 Blood & Tissue kit, Qiagen). The HBV DNA was amplified in a polymerase chain reaction assay using LightCycler 480 II (Roche), as previously described.[63] All samples were tested in duplicate.

[2] = MTT cytotoxicity, PBM cells; assay type: cell-based, human; conditions: human, peripheral blood mononuclear (PBM) cells
Description: (§1) Human peripheral blood mononuclear (PBM), T lymphoblast CEM-CCRF (herein referred to as CEM cells), African green monkey kidney (Vero), or human liver carcinoma (HepG2) cells were tested via MTT assay using the CellTiter 96 Non-Radioactive Cell Proliferation (Promega) kit as previously described.[63]

[3] = tested on: human peripheral blood mononuclear (PBM) cells; experiment: MTT cytotoxicity, PBM cells; assay type: cell-based; conditions: 100 µM
Description: as §1

[4] = tested on: human liver carcinoma (HepG2) cells; experiment: MTT cytotoxicity, HepG2 cells; assay type: cell-based; conditions: HepG2 cells, 100 µM
Description: as §1

[5] = MTT cytotoxicity, HepG2 cells; assay type: cell-based, human; conditions: human, HepG2 cells (liver carcinoma)
Description: as §1

[6] = tested on: PBM, CEM, Vero and HepG2 cells; experiment: MTT cytotoxicity, four cell lines taken together; assay type: cell-based
Description: as §1

Cp149 [7] = biological target: T1, Cp149 (Hepatitis B virus genotype D subtype adw, UniProt P03147); experiment: Tryptophan fluorescence titration; assay type: binding; conditions: 20 μM Cp149, compound up to 100 μM
T1 construct: The N-terminal domain of Cp (Cp149) is sufficient for forming regular capsids; made in house; host or cells: E. coli BL21(DE3)
Description: Each of the compounds was titrated into 100 μL of the protein solution to final concentrations of 0, 5, 10, 20, 50, and 100 μM in a clear bottom 96-well plate. […] Tryptophan fluorescence levels were measured by exciting the samples at 285 nm and measuring the emission at 340 nm with the Varioskan Flash (Thermo Fisher) plate reader. […] Fluorescence quenching was calculated by taking the difference of net fluorescence levels of each concentration and of the 0 μM sample. All the samples were run in triplicate, and the results were averaged. The dissociation constants (KD) were fitted by the one-site-specific binding model of GraphPad.[45]

[8] = MTT cytotoxicity, Vero cells; assay type: cell-based, African green monkey; conditions: African green monkey, Vero cells (kidney)
Description: as §1

[9] = tested on: African green monkey kidney (Vero) cells; experiment: MTT cytotoxicity, Vero cells; assay type: cell-based; conditions: Vero cells, 100 µM
Description: as §1

Cp149 capsid assembly [10] = biological target: T2, Cp149 capsid assembly (Hepatitis B virus genotype D subtype adw, UniProt P03147); experiment: Transmission electron microscopy of assembled Cp149 products; assay type: biochemical; conditions: 20 μM Cp149, 40 μM compound
T2 construct: The N-terminal domain of Cp (Cp149) is sufficient for forming regular capsids; made in house; host or cells: E. coli BL21(DE3)
Description: The assembled samples of Cp149 were prepared as described in the Size Exclusion Chromatography section. Eight μL of each sample was added onto the 300 mesh Lacey Formvar carbon–copper grids (Ted Pella, Inc.) and allowed to sit for 1.5 min. The grid was then rinsed in 500 mL of deionized water for 10 s twice to rinse off the extra buffer on the grid. After drying, the sample was stained with 8 μL of 2% uranyl acetate for 1 min. After removal and drying of the uranyl acetate solution, the sample was imaged with a Hitachi HT7700 electron microscope at an accelerating voltage of 120 kV, at the IMat Materials Characterization Facility of Georgia Institute of Technology. The images underwent processing using ImageJ software. Initially, to minimize noise, a Gaussian blur filter was applied. These images were then converted into an 8 bit binary format for edge detection. ImageJ identified particles ranging in size from 800 to 2000 pixels. An example of a processed image can be seen in Figure S14. The circularity of each particle was calculated using the formula circularity = 4π × area × perimeter^–2. […] A total of four images, each containing a minimum of 100 capsids, were analyzed to determine the proportion of the abnormal capsids. The entire experiment was duplicated, and the outcomes from both sets were then averaged.

[11] = MTS cytotoxicity (Table S4)
[12] = MTT cytotoxicity, CEM cells; assay type: cell-based, human; conditions: human, T lymphoblast CEM-CCRF (CEM) cells
Description: as §1

Cp149 capsid assembly [13] = biological target: T2, Cp149 capsid assembly; experiment: Size exclusion chromatography of Cp149 assembly; assay type: biochemical; conditions: 20 μM Cp149, 40 μM CAM, 500 mM NaCl, 1 h, 37 °C
Description: The Cp149 protein solution and the compound solution were initially mixed in concentrations of 40 μM Cp149 and 80 μM compound and incubated for 1 h at 37 °C to allow the compound to bind to the protein. The NaCl solution was then added to the incubated mixture to final concentrations of 20 μM Cp149, 40 μM compound, and 500 mM NaCl to initiate the assembly of Cp149. This mixture was incubated at 37 °C for 1 h. Finally, […] of the sample was analyzed using a hand-poured Superose 6 column, at the flow rate of 0.4 mL/min, and the isocratic mobile phase was 50 mM HEPES (pH 7.5).

[14] = MTT cytotoxicity, four cell lines taken together; assay type: cell-based; conditions: human, African green monkey; PBM, CEM, Vero, HepG2; read-out: CC50 in all cell lines
Description: as §1

Cp149 [15] = biological target: T1, Cp149; set-up: method as in PMID 31712213; conditions: read-out: previously reported dissociation constant (KD); cited from earlier work
[16] = HepAD38 cells, 10 μM, trial 1, read-out: % HBV DNA Inh. at 10 μM, trial 1

T2 sequence (P03147 1-149): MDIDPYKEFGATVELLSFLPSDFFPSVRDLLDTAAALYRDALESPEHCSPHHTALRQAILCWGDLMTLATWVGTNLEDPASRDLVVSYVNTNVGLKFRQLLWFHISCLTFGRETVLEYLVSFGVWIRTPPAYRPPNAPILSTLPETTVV
T1 sequence (P03147 1-149): as above

`CCn1ccnc1-c1c(-c2ccccc2)ncn1CCCc1cccnc1` [GT-39] gave an inhibition at 200 µM ([1]; HePAD38, 200 µM, additional testing, Table S4, read-out: Anti-HBV activity in HepAD38 cells, % Inh. at 200 µM ± SD) of 39.1 ± 1.5%, an EC50 ([1]; HePAD38, additional testing, Table S4, read-out: Anti-HBV activity in HepAD38 cells, EC50) of over 200 µM and an inhibition at 10 µM [1, 16] of 57%. It also gave an inhibition at 10 µM ([1]; HepAD38 cells, 10 μM, trial 2, read-out: % HBV DNA Inh. at 10 μM, trial 2) of 50%, an inhibition at 10 µM ([1]; HepAD38 cells, 10 µM, trial 3, read-out: % HBV DNA Inh. at 10 µM, trial 3) of under 1% and an inhibition at 10 µM ([1]; HepAD38 cells, 10 µM, trial 4, read-out: % HBV DNA Inh. at 10 µM, trial 4) of 36%. It also gave an inhibition at 10 µM ([1]; HepAD38 cells, 10 μM, read-out: % inhibition in at least one of the trials) of over 50%, an EC50 ([1]; HepAD38 cells, trial 1, read-out: EC50, trial 1) of under 10 µM and an EC50 ([1]; HepAD38 cells, trial 2, read-out: EC50, trial 2) of 10 µM. The EC50 ([1]; HepAD38 cells, trial 3, read-out: EC50, trial 3) was over 10 µM, the EC50 ([1]; HepAD38 cells, trial 4, read-out: EC50, trial 4) was over 100 µM and the CC50 [2] was over 100 µM. For the same molecule, the “percent cytotoxicity (cell growth inhibition) at 100 µM” value [3] was 22%, the “percent cytotoxicity (MTT) at 100 µM, HepG2” value [4] was 32% and the CC50 [5] was over 100 µM. The “toxicity in at least one cell line tested” value [6] was 16 to 18 µM, the IC50 (in vitro) was over 200 µM and the tryptophan fluorescence quenching (Cp149 [7]) was “reproducible but modest fluorescence quenching”. The CC50 [8] was over 100 µM, the “% cytotoxicity (MTT) at 100 µM” value [9] was 47% and the “effect on capsid morphology (TEM)” value (Cp149 capsid assembly [10]) was “induced misdirected products”. For the same molecule, the “% abnormal capsids, Trial 1” value (Cp149 capsid assembly [10]; 500 mM NaCl) was 45%, the “% abnormal capsids, Trial 2” value (Cp149 capsid assembly [10]; 500 mM NaCl) was 36% and the “MTS cytotoxicity, % Inh. at 200 µM” value [11] was under 1%. It also gave a CC50 [12] of 16 µM.

In the case of `CCOC(=O)C1=C(CN2CCOCC2)NC(c2nccs2)=NC1c1ccc(F)cc1Br` (centres unmarked) [GLS4, reference compound], the “effect on distribution of dimers and capsids / capsid size (SEC)” value (Cp149 capsid assembly [13]) is reported as “strong enhancement of assembly” and the “effect on capsid morphology (TEM)” value (Cp149 capsid assembly [10]) is reported as “strong misdirecting effects”.

Molecule `Cc1cc2nc(-c3ccccn3)c(-c3ccccn3)nc2cc1C` [GT-5] has an inhibition at 10 µM ([1]; HepAD38 cells, 10 µM, first round of selected compounds, read-out: HBV DNA inhibition (%) at 10 µM) of 24.7%, an inhibition at 10 µM [1, 16] of 24% and a CC50 [2] of over 100 µM. For the same molecule, the CC50 [5] was over 100 µM, the CC50 [14] was over 100 µM and the CC50 [8] was over 100 µM. It also gave a CC50 [12] of over 100 µM.

In the case of `C#CCNC(=O)C(=O)c1c(C)c(C(=O)Nc2ccc(F)c(F)c2)n(C)c1C` [GLP-26], the Kd (Cp149 [15]) is given as 0.7 µM.
